Data as given in US20100297265A1, “Optimal compositions and methods for treating oral disease and pain” (priority 2009, published 2010).
Where two headings read alike, the source gives them in different places. One block for each molecule: values may come before it.

Tests used:
[1] = tested on: Streptococcus mutans strain ATCC 25175; assay: S. mutans growth in TS media with cesium/sodium salts (OD 600 nm, doubling time); assay type: cell-based; conditions: for inhibition of culture growth rates: nitrate salt, tested at 25-100 mM; for colonies on TS-agar plate: 50 μL of 100 mM salt culture spread onto TS-agar plate; for Minimum Inhibitory Concentration (MIC): Lineweaver-Burke plot of growth data
Protocol: (§1) Streptococcus mutans strain ATCC 25175 was obtained from American Type Culture Collection in the freeze-dried state. Cells were rehydrated in a trypticase soy-yeast extract media (30 g trypticase soy broth and 3 g yeast extract per liter mqH2O; TS media). The bacteria were grown overnight at 37° C., shaking at 60 rpm in 50 mL broth. For routine propagation of the strain, S. mutans was grown on trypticase soy agar plates, TS media with 15 g/L agar. Escherichia coli strain K12 was grown as a representative enteric bacteria in LB broth (10 g tryptone, 5 g yeast extract and 10 g NaCl per liter mqH2O).
To assess the toxicity of cesium chloride, growth rates were calculated from cultures grown in the absence and presence of cesium chloride with sodium chloride added to controls to maintain consistent ionic strength. The first growth curves conducted used duplicate cultures of 50 mL TS media in 125 mL flasks with foam stoppers. The media was inoculated with 1 mL of the starter culture (2% inoculum) and the optical density was measured at 600 nm. Two conditions were initially tested: 100 mM CsCl and 100 mM NaCl.
(§2) An increasing gradient of CsCl concentrations was examined to see how bacterial growth rate varies with salt concentration. Concentrations of 0 mM, 5 mM, 10 mM, 25 mM, 50 mM, 75 mM and 100 mM CsCl were tested; NaCl was used to counter balance control in order to maintain constant ion concentrations.
Additional cesium salts were used to assess alternate inhibitors of S. mutans cultures. Cesium salts of hydroxide, formate, bicarbonate, sulfate, nitrate, fluoride, and iodide were obtained from Fisher Scientific. Growth rates of S. mutans were monitored with 0 mM, 25 mM, 50 mM, and 100 mM cesium salt in TS broth. Control cultures were grown with sodium hydroxide, bicarbonate, nitrate, and sulfate at 0 mM, 25 mM, 50 mM, and 100 mM.
To investigate the inhibition of S. mutans by cesium chloride, growth in the presence and absence of CsCl was compared. Ions were balanced with NaCl in all cultures to a final concentration of 100 mM of supplemental cations added to the media (i.e., for 75 mM CsCl, 25 mM NaCl was added to bring the total concentration of supplemental cation to 100 mM). All data is presented in optical density absorbance measurements at 600 nm, or doubling times (the length of time it takes for a culture to double in time).

[2] = tested on: S. mutans; assay: Spiking of exponentially growing S. mutans cultures; assay type: cell-based, Streptococcus mutans; conditions: for doubling time: culture spiked with 100 mM salt in early exponential phase
Protocol: To determine how CsCl affects exponentially growing S. mutans cells, cultures were spiked with CsCl. TS media was prepared as in previous experiments and cultures were started with 0.2% inoculum. The cultures were grown for three and a half hours while monitoring the growth with the OD at 600 nm. When the cultures were in early exponential growth phase, they were spiked with 100 mM CsCl, 100 mM NaCl, or Listerine mouthwash in a 1:10 or 1:100 dilution in TS media.

[3] = tested on: Escherichia coli strain K12; assay: E. coli K12 growth in LB broth with CsCl; assay type: cell-based
Protocol: as §1
as §2, with “concentrations. Additional gradient growth curves with 0 mM, 20 mM, 30 mM, 40 mM and 50 mM CsCl were conducted to refine the inhibition profile of S. mutans.” for “concentrations.”

[4] = tested on: S. mutans; assay: S. mutans growth with CsCl under differing pH conditions; assay type: cell-based, Streptococcus mutans
[5] = tested on: E. coli potassium channel mutants (Kch JW1242, TrkG JW1358, TrkH JW5576, KdpA JW0686); assay: Growth of E. coli potassium channel mutants with CsCl; assay type: cell-based, Escherichia coli
Protocol: In order to better understand the mechanism of inhibition, the following potassium channel mutants of E. coli from the Keio collection were obtained from the Coli Genetic Stock Center at Yale University: Kch mutant JW 1242-1, TrkG mutant JW 1358-1, TrkH mutant JW 5576-1, and KdpA mutant JW686-5. Mutant E. coli strains were grown in LB broth in the presence or absence of CsCl (either 0 mM, 50 mM, or 100 mM CsCl) to assess the role of potassium transport channels in cesium inhibition.
It was hypothesized that, as a larger monovalent cation, cesium could block potassium channels, thereby blocking the uptake of potassium into the cell and retarding cell growth. Strains of E. coli with non-essential genes knocked out were acquired from the Yale Coli Genetic Stock Center. Four mutants were chosen: JW0686, a KdpA mutant, a cesium inducible potassium transporting ATPase; JW1242, a Kch mutant, a conductive potassium transporter; JW1358, a TrkG mutant, a transmembrane component of the Trk potassium uptake system; JW5576, a TrkH mutant, a transmembrane component of the Trk potassium uptake system. TrkG and TrkH determine the specificity of the Trk protein. Because of their similarity (i.e., 41% nucleotide homology), Trk can be made with either one of the two subunits if the other is not available, although TrkG is preferred.

[6] = tested on: S. mutans; conditions: previous study, cited from earlier work
[7] = 0, 25, 50 and 100 mM cesium salt

Molecule: [Cs+].[F-] [Cesium fluoride]
- inhibition of S. mutans growth [1, 7]: little to no inhibition

Molecule: O=C[O-].[Cs+] [Cesium formate]
- inhibition of S. mutans growth [1, 7]: little to no inhibition

Molecule: [Cs+].[OH-] [Cesium hydroxide]
- pH of the media (50 mM): 9.5
- pH of the media (100 mM): 12.5
- inhibition of S. mutans growth ([1]; 50 mM or greater, due to increase in pH): inhibited cultures completely

Molecule: [Cs+].[I-] [Cesium iodide]
- inhibition of S. mutans growth [1, 7]: little to no inhibition

Molecule: O=[N+]([O-])[O-].[Cs+] [Cesium nitrate]
- inhibition of culture growth rates [1]: roughly 30%

Molecule: O=S(=O)([O-])[O-].[Cs+].[Cs+] [Cesium sulfate]
- inhibition of S. mutans growth ([1]; concentrations of 50 mM or below): not inhibitory

Molecule: [Cl-].[Cs+] [CsCl, cesium chloride]
- doubling time [2]: 2.49 h
- doubling time ([3]; all CsCl concentrations tested (0-100 mM)): approximately 1 h
- effect on growth rate ([3]; concentrations as high as 100 mM CsCl, LB media): minimal effect
- doubling time ([4]; 25 mM CsCl, pH 7.00): 52 min
- inhibition ([4]; 25 mM CsCl, pH 7.25): No inhibition
- doubling time ([4]; 25 mM CsCl, pH 8.33): 64 min
- increase of doubling time ([4]; 25 mM CsCl, pH 8.33 vs pH 7.00): 25%
- inhibition relative to neutral pH ([4]; 100 mM, pH 8.33): more inhibitory
- inhibition relative to neutral or basic pH ([4]; pH 4.50): less inhibitory
- inhibition relative to other pH tested ([4]; pH 8.33): strongest inhibition
- inhibition of mutants ([5]; 0, 50 or 100 mM CsCl in LB broth): some inhibition
- reduction in growth rate ([5]; 100 mM CsCl vs control with 100 mM NaCl, most inhibited cultures): roughly one third
- maximum yield ([1]; 0, 5, 10 and 25 mM CsCl cultures, OD 600 nm): 0.9 OD units
- doubling time ([1]; 5 mM CsCl, NaCl added to 100 mM total supplemental cation): 1.06 h
- doubling time ([1]; 10 mM CsCl, NaCl added to 100 mM total supplemental cation): 0.94 h
- doubling time ([1]; 25 mM CsCl, NaCl added to 100 mM total supplemental cation): 1.17 h
- doubling time ([1]; 50 mM CsCl, NaCl added to 100 mM total supplemental cation): 1.54 h
- doubling time ([1]; 75 mM CsCl, NaCl added to 100 mM total supplemental cation): 2.37 h
- doubling time ([1]; 100 mM CsCl): 4.17 h
- growth of S. mutans ([1]; 100 mM CsCl culture): almost completely inhibited
- colonies on TS-agar plate [1]: thin translucent colonies after a week
- Minimum Inhibitory Concentration (MIC) [1]: 61.2 mM

Molecule: [Cl-].[Na+] [NaCl, sodium chloride]
- yield ([2]; 100 mM spiked control): 0.9 OD units
- doubling time [2]: 1.21 h
- doubling time ([1]; 100 mM NaCl (presented as 0 mM CsCl)): roughly 1 hour
- colonies on TS-agar plate [1]: small opaque white colonies overnight

- pH of the media (50 mM): 9.5
- pH of the media (100 mM): 12.5
Molecule: [Na+].[OH-] [NaOH, sodium hydroxide]

Molecule: O=C([O-])O.[Na+] [sodium bicarbonate]
- completely inhibitory concentration ([6]; 8% w/v converted): ~950 mM
- completely inhibitory concentration [6]: 8 % w/v

Molecule: O=[N+]([O-])[O-].[Na+] [sodium nitrate]
- inhibition of culture growth rates [1]: roughly 30%

Molecule: cesium bicarbonate
- inhibition of S. mutans growth ([1]; 50 mM): increased inhibition
- inhibition of S. mutans growth ([1]; 100 mM): complete inhibition
- Minimum Inhibitory Concentration (MIC) [1]: 40.5 mM
- inhibition compared with sodium bicarbonate control ([1]; concentrations less than 45 mM): not significantly different
- inhibition compared with sodium bicarbonate control ([1]; concentrations of 45 mM or greater): inhibited S. mutans growth more than the control cultures
- MIC lower than the MIC for CsCl by ([1]; difference of MIC values): more than 20 mM
